Experiment: Surface tension and critical micelle concentration (CMC) of aqueous surfactant solutions
Format: physicochemical
Conditions: Table 3; deionized water
Excerpt: Critical Micelle Concentration (CMC): The critical micelle concentration is defined as the concentration at which further surface tension is no longer lowered with increasing levels of surfactant. […] Surface tension is then plotted vs. log concentration and the data points are connected. The resulting curve has a nearly horizontal flat portion at concentrations above the CMC and has a negative steep slope at concentrations below the CMC. The CMC is defined as the lowest surfactant concentration in the horizontal flat portion of the curve.
(§1) Then the critical micelle concentration (CMC) was determined for each surfactant.
as §1

In the case of C[N+](C)([O-])CCCNC(=O)C(F)(C(F)(F)C(F)(F)C(F)(F)F)C(F)(F)C(F)(F)C(F)(F)C(F)(F)C(F)(F)C(F)(F)C(F)(F)F (stereo not drawn) [Example E7, C7 F15 CF(C3 F7)CONH(CH2)3 N^+ (CH3)2 O^-], the “solubility” value is reported as “low solub”.
In the case of O=C(NCCC[N+]1([O-])CCOCC1)C(F)(C(F)(F)F)C(F)(F)C(F)(F)C(F)(F)C(F)(F)C(F)(F)C(F)(F)C(F)(F)F (stereo not drawn) [Example E9], the “solubility” value is reported as “low solub”.

O=C(NCCC[N+]1(CCO)CCOCC1)C(F)(C(F)(F)F)C(F)(F)C(F)(F)C(F)(F)C(F)(F)C(F)(F)C(F)(F)C(F)(F)F (stereo not drawn) [Example F5] and O=C([O-])CC[N+]1(CCCNC(=O)C(F)(C(F)(F)F)C(F)(F)C(F)(F)C(F)(F)C(F)(F)C(F)(F)C(F)(F)C(F)(F)F)CCOCC1 (stereo not drawn) [Example K3] are the same in CMC: 1000 ppm for the first, 1000 ppm for the second.

Same assay, conditions: Table 3; deionized water, at CMC

First: C[N+](C)([O-])CCCNC(=O)C(F)(C(F)(F)F)C(F)(F)C(F)(F)C(F)(F)C(F)(F)C(F)(F)C(F)(F)C(F)(F)F (stereo not drawn) [Example E1, C7 F15 CF(CF3)CONH(CH2)3 N^+ (CH3)2 O^-]
Second: C[N+](C)([O-])CCCNC(=O)C(F)(C(F)(F)F)C(F)(F)C(F)(F)C(F)(F)C(F)(F)C(F)(F)F (stereo not drawn) [Example E2, C5 F11 CF(CF3)CONH(CH2)3 N^+ (CH3)2 O^-]
The “Surf Tens. (surface tension at the CMC)” value of the first is lower: 16.3 dynes/cm for the first, 17.5 dynes/cm for the second.

First: C[N+](C)([O-])CCCNC(=O)C(F)(C(F)(F)F)C(F)(F)C(F)(F)C(F)(F)C(F)(F)C(F)(F)C(F)(F)F (stereo not drawn) [Example E3, C6 F13 CF(CF3)CONH(CH2)3 N^+ (CH3)2 O^-]
Second: C[N+](C)([O-])CCCNC(=O)C(F)(C(F)(F)F)C(F)(F)C(F)(F)C(F)(F)C(F)(F)C(F)(F)C(F)(F)C(F)(F)C(F)(F)F (stereo not drawn) [Example E4, C8 F17 CF(CF3)CONH(CH2)3 N^+ (CH3)2 O^-]
The “Surf Tens. (surface tension at the CMC)” value of the first is higher: 16.6 dynes/cm for the first, 16.5 dynes/cm for the second.

Compared with C[N+](C)([O-])CCCNC(=O)C(F)(C(F)(F)F)C(F)(F)C(F)(F)C(F)(F)C(F)(F)C(F)(F)C(F)(F)C(F)(F)C(F)(F)C(F)(F)C(F)(F)F (stereo not drawn) [Example E5, C10 F21 CF(CF3)CONH(CH2)3 N^+ (CH3)2 O^-], C[N+](C)([O-])CCCN(CCO)C(=O)C(F)(C(F)(F)F)C(F)(F)C(F)(F)C(F)(F)C(F)(F)C(F)(F)C(F)(F)C(F)(F)F (stereo not drawn) [Example E8, C7 F15 CF(CF3)CON(C2 H4 OH)(CH2)3 N^+ (CH3)2 O^-] is lower in “Surf Tens. (surface tension at the CMC)” value: 17.1 dynes/cm for the first, 16.6 dynes/cm for the second.

Going from O=C(NCCOC(=O)C(F)(C(F)(F)F)C(F)(F)C(F)(F)C(F)(F)C(F)(F)C(F)(F)C(F)(F)C(F)(F)F)c1cc[n+]([O-])cc1 (stereo not drawn) [Example E10] to O=C(NCCOC(=O)C(F)(C(F)(F)F)C(F)(F)C(F)(F)C(F)(F)C(F)(F)C(F)(F)C(F)(F)F)c1cc[n+]([O-])cc1 (stereo not drawn) [Example E11], the “Surf Tens. (surface tension at the CMC)” value rises from 14.5 dynes/cm to 15.5 dynes/cm.

Compared with O=C(OCCc1cccc[n+]1[O-])C(F)(C(F)(F)F)C(F)(F)C(F)(F)C(F)(F)C(F)(F)C(F)(F)C(F)(F)F (stereo not drawn) [Example E12], O=C(OCCc1cccc[n+]1[O-])C(F)(C(F)(F)F)C(F)(F)C(F)(F)C(F)(F)C(F)(F)C(F)(F)C(F)(F)C(F)(F)F (stereo not drawn) [Example E13] is lower in “Surf Tens. (surface tension at the CMC)” value: 18.3 dynes/cm for the first, 15.0 dynes/cm for the second.

First: C[n+]1ccc(C(=O)NCCOC(=O)C(F)(C(F)(F)F)C(F)(F)C(F)(F)C(F)(F)C(F)(F)C(F)(F)C(F)(F)C(F)(F)F)cc1 (stereo not drawn) [Example F1]
Second: C[n+]1ccc(C(=O)NCCOC(=O)C(F)(C(F)(F)F)C(F)(F)C(F)(F)C(F)(F)C(F)(F)C(F)(F)C(F)(F)F)cc1 (stereo not drawn) [Example F2]
The “Surf Tens. (surface tension at the CMC)” value of the first is lower: 15.0 dynes/cm for the first, 15.5 dynes/cm for the second.

Compared with C[N+](C)(CCO)CCCNC(=O)C(F)(C(F)(F)F)C(F)(F)C(F)(F)C(F)(F)C(F)(F)C(F)(F)F (stereo not drawn) [Example F3], C[N+](C)(CCO)CCCNC(=O)C(F)(C(F)(F)F)C(F)(F)C(F)(F)C(F)(F)C(F)(F)C(F)(F)C(F)(F)C(F)(F)F (stereo not drawn) [Example F4] is higher in “Surf Tens. (surface tension at the CMC)” value: 17.0 dynes/cm for the first, 19.0 dynes/cm for the second.

First: O=C(NCCC[N+]1(CCO)CCOCC1)C(F)(C(F)(F)F)C(F)(F)C(F)(F)C(F)(F)C(F)(F)C(F)(F)C(F)(F)C(F)(F)F (stereo not drawn) [Example F5]
Second: CN(C)CCCN(CCCN(C)C)C(=O)C(F)(C(F)(F)F)C(F)(F)C(F)(F)C(F)(F)C(F)(F)C(F)(F)C(F)(F)C(F)(F)F (stereo not drawn) [Example F9, C7 F15 CF(CF3)CON[C3 H6 N^+ (CH3)2 H]2 2[^- OOCCH3]]
The “Surf Tens. (surface tension at the CMC)” value of the first is lower: 20.8 dynes/cm for the first, 22.0 dynes/cm for the second.

Compared with C[N+](C)(CCCNC(=O)C(F)(C(F)(F)F)C(F)(F)C(F)(F)C(F)(F)C(F)(F)C(F)(F)C(F)(F)C(F)(F)F)CCC(=O)[O-] (stereo not drawn) [Example K1, C7 F15 CF(CF3)CONH(CH2)3 N^+ (CH3)2 C2 H4 COO^-], O=C([O-])CC[N+]1(CCCNC(=O)C(F)(C(F)(F)F)C(F)(F)C(F)(F)C(F)(F)C(F)(F)C(F)(F)C(F)(F)C(F)(F)F)CCOCC1 (stereo not drawn) [Example K3] is higher in “Surf Tens. (surface tension at the CMC)” value: 16.6 dynes/cm for the first, 19.2 dynes/cm for the second.

First: C[N+](C)(CCCN(CCC[N+](C)(C)CCC(=O)[O-])C(=O)C(F)(C(F)(F)F)C(F)(F)C(F)(F)C(F)(F)C(F)(F)C(F)(F)C(F)(F)C(F)(F)F)CCC(=O)[O-] (stereo not drawn) [Example K4]
Second: C6 F13 CF(CF3)CON(C3 H6 SO3^-)(CH2)3 N^+ (CH3)2 H [Example K2]
The “Surf Tens. (surface tension at the CMC)” value of the first is higher: 23.6 dynes/cm for the first, 20.3 dynes/cm for the second.

In the case of “C8 F17 CF(CF3)CO(OCH2 CH2)16 OCH3 [Example J1]”, the “Surf Tens. (surface tension at the CMC)” value is reported as 22 dynes/cm.

Same assay, conditions: Table 5; deionized water, at CMC

First: O=C(O)C(F)(C(F)(F)F)C(F)(F)C(F)(F)C(F)(F)C(F)(F)C(F)(F)C(F)(F)C(F)(F)F (stereo not drawn) [Example M20, C7 F15 CF(CF3)COO^- H3 N^+ C2 H4 OH]
Second: O=C(O)C(F)(C(F)(F)F)C(F)(F)C(F)(F)C(F)(F)C(F)(F)C(F)(F)C(F)(F)C(F)(F)C(F)(F)F (stereo not drawn) [Example M24, C8 F17 CF(CF3)COO^- K^+]
The “Surf. Tens. (surface tension at the CMC)” value of the first is lower: 15.0 dynes/cm for the first, 16.4 dynes/cm for the second.

Compared with O=C(O)C(F)(C(F)(F)F)C(F)(F)C(F)(F)C(F)(F)C(F)(F)C(F)(F)C(F)(F)F (stereo not drawn) [Example M22, C6 F13 CF(CF3)COO^- K^+], O=C(O)C(F)(C(F)(F)F)C(F)(F)C(F)(F)C(F)(F)C(F)(F)C(F)(F)C(F)(F)C(F)(F)F (stereo not drawn) [Example M23, C7 F15 CF(CF3)COO^- K^+] is lower in “Surf. Tens. (surface tension at the CMC)” value: 17.5 dynes/cm for the first, 15.0 dynes/cm for the second.

First: O=C(O)C(F)(C(F)(F)F)C(F)(F)C(F)(F)C(F)(F)C(F)(F)C(F)(F)C(F)(F)F (stereo not drawn) [Example M25, C6 F13 CF(CF3)COO^- Na^+]
Second: O=C(O)C(F)(C(F)(F)F)C(F)(F)C(F)(F)C(F)(F)C(F)(F)C(F)(F)C(F)(F)C(F)(F)F (stereo not drawn) [Example M26, C7 F15 CF(CF3)COO^- Na^+]
The “Surf. Tens. (surface tension at the CMC)” value of the first is higher: 19.8 dynes/cm for the first, 19.4 dynes/cm for the second.

In the case of O=C(O)C(F)(C(F)(F)F)C(F)(F)C(F)(F)C(F)(F)C(F)(F)C(F)(F)C(F)(F)C(F)(F)F (stereo not drawn) [Example M27, C7 F15 CF(CF3)COO^- Li^+], the “Surf. Tens. (surface tension at the CMC)” value is reported as 24.1 dynes/cm.
With O=C(O)C(F)(C(F)(F)F)C(F)(F)C(F)(F)C(F)(F)C(F)(F)C(F)(F)C(F)(F)C(F)(F)F (stereo not drawn) [Example M30, C7 F15 CF(CF3)COO^- 1/2[H3 N^+ C2 H4 NHC2 H4 N^+ H3]] the “Surf. Tens. (surface tension at the CMC)” value was 16.2 dynes/cm.

Source: US6015838A, “Aqueous film-forming foam compositions” (3M Innovative Properties Company, priority 1996, dated 2000)
